The source made the active and inactive calls.
Columns and labels:
[1] = target: T1, Short transient receptor potential channel 4 (Mus musculus, UniProt Q9QUQ5); assay: mouse TRPC4 channel inhibitors, dose response, cell-based, HEK293 TRPC4/mu-opioid, Fluo-4 calcium (AID 434942); format: functional;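 note: potency of inhibitors blocking the TRPC4 calcium response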
T1 sequence (Q9QUQ5 whole entry): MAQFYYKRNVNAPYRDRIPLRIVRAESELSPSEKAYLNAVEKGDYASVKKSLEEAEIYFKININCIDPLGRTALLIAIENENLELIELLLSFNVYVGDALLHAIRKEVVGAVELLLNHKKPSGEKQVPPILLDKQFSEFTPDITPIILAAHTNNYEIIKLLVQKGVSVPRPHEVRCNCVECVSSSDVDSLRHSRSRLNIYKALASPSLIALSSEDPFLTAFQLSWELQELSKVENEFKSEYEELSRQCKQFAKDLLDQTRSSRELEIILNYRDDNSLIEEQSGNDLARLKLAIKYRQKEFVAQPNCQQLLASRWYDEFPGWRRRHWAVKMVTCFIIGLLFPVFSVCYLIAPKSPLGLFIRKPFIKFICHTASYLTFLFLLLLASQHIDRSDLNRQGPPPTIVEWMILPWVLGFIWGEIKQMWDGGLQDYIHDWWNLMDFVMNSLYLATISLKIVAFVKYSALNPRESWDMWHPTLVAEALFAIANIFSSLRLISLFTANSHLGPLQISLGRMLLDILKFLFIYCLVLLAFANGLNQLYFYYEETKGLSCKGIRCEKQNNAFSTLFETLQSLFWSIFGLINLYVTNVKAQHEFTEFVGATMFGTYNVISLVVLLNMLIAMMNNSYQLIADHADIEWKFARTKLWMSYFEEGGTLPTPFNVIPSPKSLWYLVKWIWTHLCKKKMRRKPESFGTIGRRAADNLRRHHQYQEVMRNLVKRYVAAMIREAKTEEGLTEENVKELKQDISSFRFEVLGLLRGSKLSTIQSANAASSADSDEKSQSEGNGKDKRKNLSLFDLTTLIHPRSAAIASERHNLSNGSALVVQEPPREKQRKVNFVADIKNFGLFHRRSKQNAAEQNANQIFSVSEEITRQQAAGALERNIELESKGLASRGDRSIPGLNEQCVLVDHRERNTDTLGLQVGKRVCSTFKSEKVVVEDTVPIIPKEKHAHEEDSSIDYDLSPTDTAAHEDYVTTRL

[2] = target: T2, Polyadenylate-binding protein 1 (Homo sapiens, UniProt P11940); assay: PABP1 MLLE–PAM2 interaction inhibitors, dose response, miRNA deadenylation inhibitor project, biochemical, fluorescence polarization, Cy5-PAM2 peptide, secondary (AID 602260); format: functional; settings: read-out: IC50_Mean
T2 sequence (P11940 whole entry): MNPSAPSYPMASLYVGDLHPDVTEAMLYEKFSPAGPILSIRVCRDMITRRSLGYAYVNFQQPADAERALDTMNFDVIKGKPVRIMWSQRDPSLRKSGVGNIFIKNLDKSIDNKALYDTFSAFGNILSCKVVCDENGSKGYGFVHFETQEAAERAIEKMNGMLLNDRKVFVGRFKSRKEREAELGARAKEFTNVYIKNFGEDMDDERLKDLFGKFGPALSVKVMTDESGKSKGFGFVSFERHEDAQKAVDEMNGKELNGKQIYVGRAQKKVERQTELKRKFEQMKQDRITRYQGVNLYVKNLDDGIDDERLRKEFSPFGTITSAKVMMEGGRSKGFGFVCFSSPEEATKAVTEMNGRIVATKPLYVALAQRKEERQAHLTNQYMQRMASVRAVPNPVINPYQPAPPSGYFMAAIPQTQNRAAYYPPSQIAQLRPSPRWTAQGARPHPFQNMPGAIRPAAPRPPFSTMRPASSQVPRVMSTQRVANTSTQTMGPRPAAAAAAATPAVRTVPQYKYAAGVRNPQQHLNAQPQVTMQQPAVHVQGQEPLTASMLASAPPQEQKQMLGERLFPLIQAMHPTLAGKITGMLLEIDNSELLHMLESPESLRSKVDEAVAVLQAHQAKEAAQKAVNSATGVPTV

[3] = target: T2, Polyadenylate-binding protein 1; assay: PABP1 MLLE–PAM2 binding inhibitor potency, dose response, biochemical, fluorescence polarization, FITC-PAM2 peptide (AID 602259); format: functional; settings: read-out: IC50_Mean
[4] = cytotoxicity toward DRD oncogenic fibroblasts, dose response, cell-based, non-viral oncogenic, luminescence (AID 1934); format: functional; settings: Homo sapiens
BJ [5] = assay: cytotoxicity toward BJ-TERT-LT-ST fibroblasts, dose response, cell-based, RAS-independent, luminescence (AID 1935); format: functional; settings: Homo sapiens;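 note: BJ fibroblasts immortalized with TERT plus LT and ST oncogenes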
BJ [6] = assay: cells; format: functional, cell-based; settings: Homo sapiens
BJ [7] = assay: cytotoxicity toward BJ-TERT fibroblasts, dose response, cell-based, RAS-independent, luminescence (AID 1933); format: functional; settings: Homo sapiens
[8] = target: T3, Replicative DNA helicase DnaB (Mycobacterium tuberculosis, UniProt P9WMR3); assay: DnaB intein splicing inhibitors, dose response, biochemical, cell-free fluorescence (AID 449749); format: functional
T3 sequence (P9WMR3 whole entry): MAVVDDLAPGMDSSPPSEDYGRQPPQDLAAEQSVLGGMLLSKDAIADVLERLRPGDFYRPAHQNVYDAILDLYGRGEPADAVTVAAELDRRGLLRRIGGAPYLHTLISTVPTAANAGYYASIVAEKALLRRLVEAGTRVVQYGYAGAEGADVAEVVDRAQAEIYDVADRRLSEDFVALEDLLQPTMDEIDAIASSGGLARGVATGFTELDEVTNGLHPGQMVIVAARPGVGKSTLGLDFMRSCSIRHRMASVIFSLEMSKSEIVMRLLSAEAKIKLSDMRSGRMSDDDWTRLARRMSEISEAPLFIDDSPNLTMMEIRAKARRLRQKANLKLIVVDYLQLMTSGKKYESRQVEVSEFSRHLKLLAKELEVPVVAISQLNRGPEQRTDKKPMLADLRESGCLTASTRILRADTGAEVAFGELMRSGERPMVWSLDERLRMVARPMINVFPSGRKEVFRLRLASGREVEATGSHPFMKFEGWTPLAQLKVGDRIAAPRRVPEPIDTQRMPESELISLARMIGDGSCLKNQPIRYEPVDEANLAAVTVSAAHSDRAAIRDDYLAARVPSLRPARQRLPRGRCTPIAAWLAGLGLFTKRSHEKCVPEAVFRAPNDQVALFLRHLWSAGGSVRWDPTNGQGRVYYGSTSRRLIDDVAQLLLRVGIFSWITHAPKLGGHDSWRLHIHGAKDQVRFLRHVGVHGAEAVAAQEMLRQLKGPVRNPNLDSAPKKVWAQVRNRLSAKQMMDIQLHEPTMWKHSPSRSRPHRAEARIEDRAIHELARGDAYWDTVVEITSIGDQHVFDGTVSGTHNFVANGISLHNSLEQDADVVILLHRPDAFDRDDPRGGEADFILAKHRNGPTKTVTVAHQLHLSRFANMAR

Protein RecA = target: T4, Protein RecA (Mycobacterium tuberculosis, UniProt P9WHJ3); assay: Fluorescence Cell-Free Homogeneous Dose Retest to Identify Inhibitors of RecA-Intein Splicing Activity. [Related pubchem assays (depositor defined):AID2097, AID2223, AID489010, AID492950]; format: functional
T4 sequence (P9WHJ3 whole entry): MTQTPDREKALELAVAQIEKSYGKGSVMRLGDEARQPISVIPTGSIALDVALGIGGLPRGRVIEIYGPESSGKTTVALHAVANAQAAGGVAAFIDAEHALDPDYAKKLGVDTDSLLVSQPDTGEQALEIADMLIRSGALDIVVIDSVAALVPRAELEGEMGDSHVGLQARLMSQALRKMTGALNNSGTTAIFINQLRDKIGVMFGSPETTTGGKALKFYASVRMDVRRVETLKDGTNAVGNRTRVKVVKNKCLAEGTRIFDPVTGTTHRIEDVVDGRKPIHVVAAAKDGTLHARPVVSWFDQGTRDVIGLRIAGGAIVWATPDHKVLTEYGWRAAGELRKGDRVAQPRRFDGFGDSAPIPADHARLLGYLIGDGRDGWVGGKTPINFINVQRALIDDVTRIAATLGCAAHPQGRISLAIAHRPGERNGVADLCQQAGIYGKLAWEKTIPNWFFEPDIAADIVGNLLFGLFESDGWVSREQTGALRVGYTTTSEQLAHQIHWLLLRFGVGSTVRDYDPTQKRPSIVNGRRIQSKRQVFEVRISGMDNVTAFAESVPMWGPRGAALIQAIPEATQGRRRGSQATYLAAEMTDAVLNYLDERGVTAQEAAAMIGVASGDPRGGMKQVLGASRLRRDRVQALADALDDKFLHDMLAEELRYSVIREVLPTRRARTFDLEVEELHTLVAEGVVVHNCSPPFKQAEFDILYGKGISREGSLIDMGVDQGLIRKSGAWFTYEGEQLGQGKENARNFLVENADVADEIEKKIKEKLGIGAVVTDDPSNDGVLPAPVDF

[9] = target: T5, DNA repair and recombination protein RAD54-like (Homo sapiens, UniProt Q92698); assay: inhibitors of human RAD54 branch migration, confirmation, biochemical, fluorescence, cherry-picked samples, dose series (AID 651657); format: functional
T5 sequence (Q92698 whole entry): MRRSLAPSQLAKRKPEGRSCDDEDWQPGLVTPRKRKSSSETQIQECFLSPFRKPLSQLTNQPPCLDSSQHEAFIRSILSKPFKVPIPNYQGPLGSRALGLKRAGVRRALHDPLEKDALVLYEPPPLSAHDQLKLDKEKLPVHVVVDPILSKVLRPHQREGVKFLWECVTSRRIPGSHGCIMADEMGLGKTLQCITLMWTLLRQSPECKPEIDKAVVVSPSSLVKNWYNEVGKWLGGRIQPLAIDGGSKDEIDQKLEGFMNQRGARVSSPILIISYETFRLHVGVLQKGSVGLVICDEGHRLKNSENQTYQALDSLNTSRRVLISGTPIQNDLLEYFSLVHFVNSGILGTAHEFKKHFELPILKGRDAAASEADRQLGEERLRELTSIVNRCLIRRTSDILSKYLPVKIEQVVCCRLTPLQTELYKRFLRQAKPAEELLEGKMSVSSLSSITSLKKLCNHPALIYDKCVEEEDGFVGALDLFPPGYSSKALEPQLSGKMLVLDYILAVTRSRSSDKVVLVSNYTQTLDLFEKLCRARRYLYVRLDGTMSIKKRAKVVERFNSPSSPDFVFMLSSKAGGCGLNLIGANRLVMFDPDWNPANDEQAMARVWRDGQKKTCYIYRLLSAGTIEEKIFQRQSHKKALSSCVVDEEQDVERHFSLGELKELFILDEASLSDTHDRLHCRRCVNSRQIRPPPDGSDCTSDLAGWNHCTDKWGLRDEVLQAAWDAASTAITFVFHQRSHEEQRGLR

[10] = target: T6, Heat shock factor protein 1 (Mus musculus, UniProt P38532); assay: HSF1 potentiators in luciferase reporter cells, confirmation, cell-based, NIH3T3, luminescence, dose retest (AID 435004); format: functional;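 note: stress induced by proteasome inhibitor MG132 added 30 min after compound; luciferase reporter driven by HSF1 response element in NIH3T3 cells; actives raise luminescence as potentiators of the MG132 stress response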
T6 sequence (P38532 whole entry): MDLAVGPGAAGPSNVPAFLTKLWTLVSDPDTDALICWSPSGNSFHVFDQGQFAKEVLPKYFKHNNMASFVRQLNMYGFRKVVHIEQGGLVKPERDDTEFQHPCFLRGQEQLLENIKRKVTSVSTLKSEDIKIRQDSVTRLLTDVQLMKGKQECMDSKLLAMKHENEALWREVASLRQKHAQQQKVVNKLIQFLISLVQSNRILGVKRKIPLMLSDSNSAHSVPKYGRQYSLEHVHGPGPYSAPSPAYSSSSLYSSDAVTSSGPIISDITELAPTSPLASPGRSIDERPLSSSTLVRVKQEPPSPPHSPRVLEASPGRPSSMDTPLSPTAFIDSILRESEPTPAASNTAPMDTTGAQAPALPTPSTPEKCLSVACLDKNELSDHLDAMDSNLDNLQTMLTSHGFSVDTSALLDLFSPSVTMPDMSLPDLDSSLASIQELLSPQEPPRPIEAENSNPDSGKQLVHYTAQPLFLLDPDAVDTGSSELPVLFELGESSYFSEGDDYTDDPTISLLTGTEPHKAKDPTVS

Genome polyprotein = Genome polyprotein (dengue virus type 2, UniProt P29990); assay: Dengue-2 NS5 methyltransferase inhibitors, primary screen, biochemical, confirmation dose response (AID 588689); format: functional
Sequence of Genome polyprotein (P29990 2492-3391 limits assumed): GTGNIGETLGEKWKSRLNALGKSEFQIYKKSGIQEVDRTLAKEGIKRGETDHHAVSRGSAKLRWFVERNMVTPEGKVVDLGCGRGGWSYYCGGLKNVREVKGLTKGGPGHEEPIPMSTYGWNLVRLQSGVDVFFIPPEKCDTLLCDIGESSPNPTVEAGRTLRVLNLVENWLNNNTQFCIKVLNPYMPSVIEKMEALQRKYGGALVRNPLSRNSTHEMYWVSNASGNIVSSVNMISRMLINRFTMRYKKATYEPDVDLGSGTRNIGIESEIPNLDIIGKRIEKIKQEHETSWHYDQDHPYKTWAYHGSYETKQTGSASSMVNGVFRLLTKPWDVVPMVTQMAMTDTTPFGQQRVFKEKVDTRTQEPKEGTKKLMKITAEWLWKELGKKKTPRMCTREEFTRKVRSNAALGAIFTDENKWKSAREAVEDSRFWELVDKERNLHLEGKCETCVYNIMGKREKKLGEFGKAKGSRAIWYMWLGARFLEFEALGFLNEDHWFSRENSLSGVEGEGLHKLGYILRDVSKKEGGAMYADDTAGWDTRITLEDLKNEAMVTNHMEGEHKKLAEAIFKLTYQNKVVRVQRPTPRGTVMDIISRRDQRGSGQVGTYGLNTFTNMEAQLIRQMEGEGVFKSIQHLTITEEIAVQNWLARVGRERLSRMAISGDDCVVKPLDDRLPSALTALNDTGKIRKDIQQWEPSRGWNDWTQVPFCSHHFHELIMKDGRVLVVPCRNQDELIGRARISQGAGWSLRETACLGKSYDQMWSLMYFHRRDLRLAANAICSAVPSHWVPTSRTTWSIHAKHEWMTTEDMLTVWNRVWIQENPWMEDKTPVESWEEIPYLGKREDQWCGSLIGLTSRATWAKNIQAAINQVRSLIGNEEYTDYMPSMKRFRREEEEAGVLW

[11] = Luminescence Cell-Based Dose Retest to Confirm Inhibitors of Cancer Stem Cells. [Related pubchem assays (depositor defined):AID2717, AID2721]; format: functional; settings: Homo sapiens

Which EC50 [1] does the source give for `CCC(O)C1CCN(Cc2cn(-c3ccc(OC)cc3)nc2-c2cccc(F)c2)CC1` (centres undefined) here?
Its EC50 is 10.6 µM (active).

For `CCC(C)[C@H](NC(=O)C1CC(=O)N(c2ccc3c(c2)OCO3)C1)C(=O)NC1CCCCC1` (some centres undefined), which IC50 [2] is on record?
The IC50 was > 66 µM (inactive).

And the IC50 [3]?
The IC50 was 54.9 µM (inactive).

Which EC50 [1] does the source give for `CCn1cc(CN2CCCC(CO)(Cc3cccc(Cl)c3)C2)cn1` (centres undefined) here?
The EC50 was 5.96 µM (active).

What does the source list for `O=C(NC1CCCC1)C(c1ccc(Cl)cc1)N(Cc1ccc(F)cc1)C(=O)CCl` (centres undefined)?
EC50 [4]: 10.5 µM (inconclusive); EC50 (BJ [5]): > 150 µM (inconclusive); EC50 (BJ [6]): 16.4 µM (active); EC50 (BJ [7]): 7.08 µM (inconclusive); AC50 [8]: 1.16 µM (active); EC50 (Protein RecA): 1.07 µM (active)

With `CCOC(=O)c1cnc2ccc(OC)cc2c1Nc1ccc(N2CCN(C)CC2)cc1` as the compound, how does the AC50 [9] read?
The AC50 was 34 µM (active).

What about the EC50 [10] of the same compound?
Its EC50 is > 260 µM (inactive).

For `Cc1c(O)c(CN(C)C)cc2c1oc(=O)c1ccccc12`, which AC50 [9] is on record?
The AC50 was 35.5 µM (active).

Which IC50 [2] does the source give for `CCOc1ccc(Cn2c(SCCCCC#N)nc3c2c(=O)n(C)c(=O)n3C)cc1OCC` here?
Its IC50 is > 66 µM (inactive).

And the IC50 [3]?
The IC50 was > 66 µM (inactive).

For `CCCn1nc([N+](=O)[O-])c(C(C#N)c2nc3ccccc3o2)c(Cl)c1=O` (centres undefined), which IC50 (Genome polyprotein) is on record?
Its IC50 is 34.7 µM (active).

What about the EC50 [1] of the same compound?
The EC50 was 6.68 µM (active).

And the AC50 [11]?
The AC50 was 4.55 µM (active).

What about the EC50 [10] of the same compound?
Its EC50 is > 260 µM (inactive).
